{"source": "patent US20060241067A1", "about": "“Methods For inhibiting angiogenesis, cell migration, cell adhesion, and cell survival” (priority 2002, published 2006)", "key": {"[1]": {"system": "chick chorioallantoic membrane (CAM)", "test": "Chick chorioallantoic membrane (CAM) angiogenesis assay", "format": "in vivo, chicken", "conditions": "bFGF stimulated CAMs"}, "[2]": {"system": "Human umbilical vein endothelial cells (HUVEC)", "test": "Endothelial cell migration assay (transwell) on ECM substrates", "format": "cell-based", "procedure": "Human umbilical vein endothelial cells (HUVEC) were grown in Endothelial Growth Medium (containing 2% fetal bovine serum, bFGF and VEGF) (Clonetics, San Diego, Calif.). To render HUVECs quiescent for Rac and/or Rho assays, monolayers of endothelial cells were incubated for 18 hrs in Endothelial Basal Medium supplemented with 0.1% serum (Clonetics). Cell migration and adhesion assays on ECM substrates were performed as previously described in Kim et al. (S. Kim et al., Amer. J. Biol. Chem., 275:33920-33928 (2000); and S. Kim et al., Amer. J. Path., 156:1345-1362 (2000)).\nMigration assays were performed essentially as described (Kim, et. al., 2000). […] HUVECS (25,000) were added to the upper chamber of inserts in migration buffer (Hepes buffered M199 medium containing 1% BSA, 2 mM MgCl2, 2 mM CaCl2 and 0.2 mM MnCl2) containing 25 μg/ml of various antibodies. In some experiments, 250 μM dibutyryl cAMP was placed in the upper and lower chambers of the transwell. Cells were allowed to migrate from the upper to the lower chamber for four hours at 37° C. The number of cells which had migrated were counted in three representative high power (200×) fields per insert. The data are presented as number of cells migrating+/−standard error of the mean. Migration assays were similarly performed on transfected cells. In this case, migrated transfected cells were identified by fluorescent microscopy and counted."}, "[3]": {"system": "bFGF-stimulated angiogenesis in the mouse", "test": "Murine matrigel angiogenesis assay", "format": "in vivo, nude mice", "conditions": "bFGF matrigel with peptide, subcutaneous"}}}
{"substance": "AVSEHQLLHS/D [PTHrP 1-10]", "values": [{"measurement": "effectiveness at inhibiting angiogenesis relative to PTHrP 1-34", "setting": "[1]; 1 μM", "result": "slightly less effective"}, {"measurement": "angiogenesis (blood vessel branch points, vessel density)", "setting": "[1]; 1 μM peptide", "result": "effective in inhibiting angiogenesis in the CAM assay"}, {"measurement": "endothelial cell migration on vitronectin", "setting": "[2]; 1 μM peptide", "result": "similarly effective in inhibiting cell migration on vitronectin"}, {"measurement": "maximum inhibition of cell migration", "setting": "[2]; at a concentration of 10 μM", "result": 50, "unit": "%"}, {"measurement": "angiogenesis in matrigel plugs (fluorescence intensity of lectin)", "setting": "[3]", "result": "effective in inhibiting angiogenesis in a mouse model of angiogenesis"}]}
